Where two headings read alike, the source gives them in different places. Non-standard residues stand in square brackets, D forms with d. Residues, ends and D or L forms follow the SMILES beside them. *: point of attachment. d1Nal = N[C@H](Cc1cccc2ccccc12)C(=O)O; d2Nal = N[C@H](Cc1ccc2ccccc2c1)C(=O)O; Isobutyloxycarbonyl = CC(C)COC(=O)*; Hica(2S) = CC(C)C[C@H](O)C(=O)O; Pip = O=C(O)[C@@H]1CCCCN1
Test system: HIV
Assay type: cell-based
Protocol: Assay For The Reduction of HIV Syncytia Formed In HT4-6C Cells
The syncytia reduction assay as described by Larder, B. et al., science 243:1731-1734(1989) was used to measure the antiviral effect of protease inhibitor. A Hela cell line, HT4-6C, expressing the human CD4 receptor on its surface was trypsinized with 0.25% trypsin for 5 min. Cells were centrifuged to remove the residual trypsin, and the cell pellet was resuspended in DMEM with 10% FCS. HeLa cells were plated in 96 well plate (1×10^5 cells/well) overnight. Cell cultures were infected with HIV (approx. 100 PFU/well) for one hour. The […] were then prepared in stock solutions, and were then two fold diluted in 2% DMEM with 0.5% methylcellulose. 100 μl of each diluted antiviral agent is added into each well of HIV infected cells. The treated cell cultures were incubated in 37° C. CO2 incubator for 24 hours. Plates of HIV-infected cell cultures were fixed with methanol and stained with 1% crystal violet for 10 min., the dye is rinsed off with tap water. Each plate is dried and syncytia were counted. The antiviral effect of protease inhibitor is calculated by 50% syncytia reduction.

[1] = antiviral effect calculated by 50% syncytia reduction, HIV-infected HT4-6C (HeLa, human CD4) cells, 24 hours incubation, read-out: IC50

| IC50 (24 h) | IC50 [1] | Structure (SMILES) |
| --- | --- | --- |
| 10000 nM | – | CC(C)COC(=O)N[C@H](Cc1ccccc1)C(=O)N[C@H](Cc1cccc2ccccc12)C(=O)N1CCCC[C@H]1C(=O)O[C@@H](CC(C)C)C(=O)N[C@H](C(N)=O)C(C)C [EXAMPLE 27-40, i-Boc-(D-Phe)-(D-a-Nal)-Pip-(a-(OH)-Leu)-Val-NH2] (Isobutyloxycarbonyl-[dF][d1Nal][Pip][Hica(2S)]V-NH2) |
| – | 3000 nM | CC(C)(C)OC(=O)NC(CO)C(=O)NC(Cc1ccccc1)C(=O)OCC(O)C(O)COC(=O)C(Cc1ccccc1)NC(=O)C(CO)NC(=O)OC(C)(C)C (stereo not drawn) [EXAMPLE 25, (Boc-Ser-Phe-O--CH2 --CHOH)2] |
| – | 1000 nM | CC(C)C(NC(=O)OC(C)(C)C)C(=O)NC(Cc1ccccc1)C(=O)OCC(O)C(O)COC(=O)C(Cc1ccccc1)NC(=O)C(NC(=O)OC(C)(C)C)C(C)C (stereo not drawn) [EXAMPLE 24, (Boc-Val-Phe-O--CH2 --CHOH)2] |
| > 100000 nM | – | COC(=O)[C@@H]1CCCCN1C(=O)[C@@H](Cc1ccc2ccccc2c1)NC(=O)[C@H](C)NC(=O)[C@H](C)NC(C)=O [EXAMPLE 27-30, Ac-Ala-Ala-(D-b-Nal)-Pip-OMe] (Ac-AA[d2Nal][Pip]-OMe) |
